Some test systems named below: COLO 205 colon; HCT-116 colon; NCI-H460 lung; SF-539 CNS; MDA-MB-435; SNB-75 CNS; A549 NSCLC; RPMI-8226 leukemia; MDA-N; MDA-MB-231 breast.
Holding throughout (test): growth of human tumour cells (NCI), 48 h

Each structure is given as a SMILES string.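 A five-concentration, 48-hour dose response in 96-well plates underlies each endpoint, interpolated linearly between surrounding concentrations. TGI denotes the concentration required for complete inhibition of growth.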

For `CSc1c(C#N)c(N)n(-c2ccc(Cl)cc2)c(=O)c1C#N`, the TGI in the assay on COLO 205 colon, in the assay on HCT-116 colon, in the assay with NCI-H460 lung, in the assay on SF-539 CNS, with MDA-MB-435 and in the assay with SNB-75 CNS was more than 100 µM in each case. The TGI with A549 NSCLC, with RPMI-8226 leukemia, in the assay with MDA-N and in the assay on MDA-MB-231 breast was more than 100 µM throughout.

On to `OC(c1cccnc1Cl)c1nc2ccccc2c2ccnc(Cl)c12` (configuration not stated), for which the TGI in the assay on COLO 205 colon was more than 100 µM; with HCT-116 colon, more than 100 µM; in the assay with NCI-H460 lung it was more than 100 µM; with SF-539 CNS it was 12.4 µM; in the assay with MDA-MB-435, 4.89 µM; in the assay with SNB-75 CNS, more than 100 µM. In addition, the TGI is more than 100 µM in the assay on A549 NSCLC, 8.57 µM in the assay with RPMI-8226 leukemia, 4.49 µM in the assay with MDA-N and more than 100 µM in the assay on MDA-MB-231 breast.

As to `CCN(CC)C1Oc2cc3c(cc2C(c2cccc(OC)c2OC)C1C)OCO3` (configuration not stated), the TGI in the assay with COLO 205 colon is 17 µM; with HCT-116 colon, 12.8 µM; with NCI-H460 lung, 17.7 µM; in the assay with SF-539 CNS, 28.2 µM; in the assay with MDA-MB-435 it was 45.6 µM; in the assay on SNB-75 CNS, 44.7 µM. Also, the TGI worked out at 25.8 µM with A549 NSCLC, 16.4 µM in the assay on RPMI-8226 leukemia, 50.5 µM in the assay on MDA-N and 35.4 µM in the assay on MDA-MB-231 breast.

`Nc1nc2c(C(=O)O)c3ccc([N+](=O)[O-])cc3c(=O)n2c2ccccc12`: the TGI in the assay on COLO 205 colon was more than 100 µM; with HCT-116 colon, 42.8 µM; in the assay with NCI-H460 lung, more than 100 µM; in the assay with MDA-MB-435 it was more than 100 µM; in the assay on SNB-75 CNS, 35.3 µM; in the assay on A549 NSCLC it was more than 100 µM. Also, the TGI in the assay on RPMI-8226 leukemia is more than 100 µM; in the assay with MDA-N it was more than 100 µM; in the assay on MDA-MB-231 breast, 79.1 µM.

For `O=C(O)c1ccccc1N=Nc1c(O)c(S(=O)(=O)O)cc2cc(S(=O)(=O)O)ccc12`, the TGI in the assay with COLO 205 colon, with HCT-116 colon, in the assay with NCI-H460 lung, with SF-539 CNS, in the assay on MDA-MB-435 and in the assay with SNB-75 CNS was more than 100 µM in each case. Besides, the TGI in the assay on A549 NSCLC, with RPMI-8226 leukemia, in the assay on MDA-N and with MDA-MB-231 breast was more than 100 µM in each case.

As to `CC(C)/C(Cl)=N/OC(=O)Nc1ccc(Cl)c(Cl)c1`, the TGI came to 3.39 µM with COLO 205 colon; 4.65 µM in the assay on HCT-116 colon; 34 µM in the assay with NCI-H460 lung; 28.9 µM in the assay on SF-539 CNS; 15.7 µM in the assay with MDA-MB-435; 35.3 µM with SNB-75 CNS. Further, the TGI with A549 NSCLC worked out at 43.4 µM; in the assay on RPMI-8226 leukemia it was 6.92 µM; in the assay on MDA-N it was 10.8 µM; in the assay on MDA-MB-231 breast, 30.2 µM.

Take `CCOC(=O)C1CCCCN1C(=O)Cc1c[nH]c2ccccc12` (configuration not stated): the TGI in the assay on COLO 205 colon, in the assay with HCT-116 colon, in the assay on NCI-H460 lung, with SF-539 CNS, with MDA-MB-435 and with SNB-75 CNS was more than 100 µM throughout. In addition, the TGI in the assay on A549 NSCLC is more than 100 µM; with RPMI-8226 leukemia it was 64.7 µM; in the assay on MDA-N, more than 100 µM; in the assay on MDA-MB-231 breast it was more than 100 µM.

Regarding `CN=C(Nc1cccc(C(F)(F)F)c1)SCc1ccc(N=C=S)cc1`, the TGI in the assay on COLO 205 colon turned out to be 30.6 µM; in the assay on HCT-116 colon it was 29 µM; with NCI-H460 lung it was 26.4 µM; with SF-539 CNS, 31.5 µM; in the assay with MDA-MB-435 it was 27 µM; in the assay on SNB-75 CNS it was 28 µM. Moreover, the TGI with A549 NSCLC amounted to 37.5 µM; with RPMI-8226 leukemia it was 45.8 µM; in the assay with MDA-N, 28 µM; in the assay on MDA-MB-231 breast, 32.3 µM.

Regarding `COc1cc(CNc2nc3ccccc3nc2C(=O)O)cc(OC)c1OC`, the TGI with COLO 205 colon, in the assay with HCT-116 colon, in the assay on NCI-H460 lung, in the assay with SF-539 CNS, in the assay with MDA-MB-435 and with SNB-75 CNS was more than 100 µM each time. Further, the TGI with A549 NSCLC, in the assay on RPMI-8226 leukemia, with MDA-N and in the assay with MDA-MB-231 breast was more than 100 µM each time.

As for `CC[C@@]1(O)C(=O)OCc2c1cc1n(c2=O)Cc2c-1nc1ccccc1c2/C=N\NC(=O)C(N)CCSC` (some centres not stated), the TGI in the assay on COLO 205 colon stood at 18.5 µM; with HCT-116 colon, 1.58 µM; in the assay with NCI-H460 lung, 0.624 µM; with MDA-MB-435, 3.58 µM; in the assay on SNB-75 CNS, 1.44 µM; with A549 NSCLC it was 3.19 µM. Besides, the figures for the TGI in the assay with RPMI-8226 leukemia, in the assay on MDA-N and in the assay on MDA-MB-231 breast were 4.03 µM, more than 100 µM and more than 100 µM, respectively.

In the case of `Cn1c(=O)n2n(c1=O)C(C)(C13CC4CC(CC(C4)C1)C3)C13CC4CC(CC1C4)CC23` (configuration not stated), the TGI in the assay on COLO 205 colon, in the assay on NCI-H460 lung, in the assay with SF-539 CNS, with MDA-MB-435, with SNB-75 CNS and in the assay with A549 NSCLC was more than 100 µM each time. The TGI with RPMI-8226 leukemia, with MDA-N and with MDA-MB-231 breast was more than 100 µM in each case.

For `CCC1C(c2ccccc2O)c2cc3c(cc2OC1N1CCOCC1)OCO3` (configuration not stated), the TGI with COLO 205 colon stood at 30.9 µM; in the assay with HCT-116 colon, 26.5 µM; in the assay with NCI-H460 lung, 29.7 µM; in the assay with SF-539 CNS, 30.7 µM; with MDA-MB-435, 28.9 µM; in the assay on SNB-75 CNS it was 22.7 µM. In addition, the TGI in the assay with A549 NSCLC was 29.9 µM; in the assay on RPMI-8226 leukemia it was 43.8 µM; with MDA-N, 28.6 µM; with MDA-MB-231 breast it was 33.5 µM.

In the case of `c1ccc(CC2COC(c3cccs3)=N2)cc1` (configuration not stated), the TGI in the assay with COLO 205 colon, in the assay with HCT-116 colon, in the assay with NCI-H460 lung, in the assay on SF-539 CNS, with MDA-MB-435 and in the assay with SNB-75 CNS was more than 100 µM throughout. Also, the TGI in the assay on A549 NSCLC, in the assay on RPMI-8226 leukemia, in the assay with MDA-N and in the assay on MDA-MB-231 breast was more than 100 µM throughout.

Consider `O=[N+]([O-])c1ccc(C(O)(C#CCN2CCCC2)c2ccccc2)cc1` (configuration not stated), for which the TGI in the assay with COLO 205 colon was 37.8 µM; in the assay on HCT-116 colon, more than 100 µM; with NCI-H460 lung it was more than 100 µM; in the assay with SF-539 CNS, more than 100 µM; in the assay on MDA-MB-435 it was 80.1 µM; in the assay on SNB-75 CNS, more than 100 µM. Moreover, the TGI was more than 100 µM with A549 NSCLC, 61.9 µM in the assay on RPMI-8226 leukemia, more than 100 µM in the assay with MDA-N and more than 100 µM in the assay with MDA-MB-231 breast.

These data come from PubChem BioAssay (NCI).
